Experimental data: ChEMBL document CHEMBL3885881, “DrugMatrix”

Species on record: Rattus norvegicus
Assay: DrugMatrix - Regimen: Daily Repeat
Type: toxicity, organism-based, Sprague-Dawley
Design: regimen Daily Repeat, gender Male, age 6-8 weeks
Conditions: in vivo, po, route oral GAVAGE, vehicle .5 % CMC; for ABSOLUTE BASOPHIL / ABSOLUTE EOSINOPHIL / ABSOLUTE LYMPHOCYTE / ABSOLUTE MONOCYTE / ABSOLUTE SEGMENTED NEUTROPHIL / BASOPHIL / EOSINOPHIL / ERYTHROCYTE COUNT / HEMATOCRIT / HEMOGLOBIN / LEUKOCYTE COUNT / LYMPHOCYTE / MEAN CORPUSCULAR HEMOGLOBIN / MEAN CORPUSCULAR HEMOGLOBIN CONCENTRATION / MEAN CORPUSCULAR VOLUME / MONOCYTE / NEUTROPHIL / NUCLEATED RED BLOOD CELLS / PLATELET COUNT: tissue Blood; for ALANINE AMINOTRANSFERASE / ALBUMIN / ALKALINE PHOSPHATASE / ASPARTATE AMINOTRANSFERASE / BLOOD UREA NITROGEN / CARBON DIOXIDE / CHLORIDE / CHOLESTEROL / CREATINE PHOSPHOKINASE / CREATININE / GLUCOSE / LACTATE DEHYDROGENASE / LIPASE / PHOSPHORUS / POTASSIUM / SODIUM / TOTAL BILIRUBIN / TOTAL PROTEIN / URIC ACID: tissue Plasma
[1] = 0 mg/kg, 72 h, dose level Control, time 3 day
[2] = 0 mg/kg, 120 h, dose level Control, time 5 day
[3] = 500 mg/kg, 72 h, dose level Low, time 3 day

With `CC(C)(Sc1cc(C(C)(C)C)c(O)c(C(C)(C)C)c1)Sc1cc(C(C)(C)C)c(O)c(C(C)(C)C)c1` [PROBUCOL] the “ABSOLUTE BASOPHIL” value [1] was 0 CELLS/uL, the “ABSOLUTE EOSINOPHIL” value [1] was 222.83 CELLS/uL and the “ABSOLUTE LYMPHOCYTE” value [1] was 14453 CELLS/uL. For the same compound, the “ABSOLUTE MONOCYTE” value [1] was 0 CELLS/uL, the “ABSOLUTE SEGMENTED NEUTROPHIL” value [1] was 1490.83 CELLS/uL and the BASOPHIL [1] was 0%. For the same compound, the EOSINOPHIL [1] was 1.33%, the “ERYTHROCYTE COUNT” value [1] was 5.76 x10E6/uL and the HEMATOCRIT [1] was 36.52%. The HEMOGLOBIN [1] was 13.45 G/DL, the “LEUKOCYTE COUNT” value [1] was 16.17 x10E3/uL and the LYMPHOCYTE [1] was 89.33%. For the same compound, the “MEAN CORPUSCULAR HEMOGLOBIN” value [1] was 23.37 pg, the “MEAN CORPUSCULAR HEMOGLOBIN CONCENTRATION” value [1] was 36.85 G/DL and the “MEAN CORPUSCULAR VOLUME” value [1] was 63.47 fL. The MONOCYTE [1] was 0%, the NEUTROPHIL [1] was 9.33% and the “NUCLEATED RED BLOOD CELLS” value [1] was 0 /100WBC. The “PLATELET COUNT” value [1] was 1239.5 x10E3/uL, the “ALANINE AMINOTRANSFERASE” value [1] was 43.83 u/L and the ALBUMIN [1] was 4.27 G/DL. For the same compound, the “ALKALINE PHOSPHATASE” value [1] was 398.83 u/L, the “ASPARTATE AMINOTRANSFERASE” value [1] was 81.17 u/L and the “BLOOD UREA NITROGEN” value [1] was 17.67 mg/dL. For the same compound, the “CARBON DIOXIDE” value [1] was 27.5 mmol/L, the CHLORIDE [1] was 99.17 MEQ/L and the CHOLESTEROL [1] was 74 mg/dL. The “CREATINE PHOSPHOKINASE” value [1] was 331.5 u/L, the CREATININE [1] was 0.2 mg/dL and the GLUCOSE [1] was 171.33 mg/dL. For the same compound, the “LACTATE DEHYDROGENASE” value [1] was 241.67 u/L, the LIPASE [1] was 9.5 u/L and the PHOSPHORUS [1] was 12.25 mg/dL. For the same compound, the POTASSIUM [1] was 6.33 MEQ/L, the SODIUM [1] was 141.28 MEQ/L and the “TOTAL BILIRUBIN” value [1] was 0.15 mg/dL. For the same compound, the “TOTAL PROTEIN” value [1] was 5.98 G/DL, the “URIC ACID” value [1] was 1.63 mg/dL and the “ABSOLUTE BASOPHIL” value [2] was 0 CELLS/uL. The “ABSOLUTE EOSINOPHIL” value [2] was 148.67 CELLS/uL, the “ABSOLUTE LYMPHOCYTE” value [2] was 16020.5 CELLS/uL and the “ABSOLUTE MONOCYTE” value [2] was 29.17 CELLS/uL. The “ABSOLUTE SEGMENTED NEUTROPHIL” value [2] was 1468.33 CELLS/uL, the BASOPHIL [2] was 0% and the EOSINOPHIL [2] was 1%. For the same compound, the “ERYTHROCYTE COUNT” value [2] was 5.78 x10E6/uL, the HEMATOCRIT [2] was 35.77% and the HEMOGLOBIN [2] was 13.4 G/DL. The “LEUKOCYTE COUNT” value [2] was 17.67 x10E3/uL, the LYMPHOCYTE [2] was 90.5% and the “MEAN CORPUSCULAR HEMOGLOBIN” value [2] was 23.22 pg. For the same compound, the “MEAN CORPUSCULAR HEMOGLOBIN CONCENTRATION” value [2] was 37.47 G/DL, the “MEAN CORPUSCULAR VOLUME” value [2] was 61.92 fL and the MONOCYTE [2] was 0.17%. For the same compound, the NEUTROPHIL [2] was 8.33%, the “NUCLEATED RED BLOOD CELLS” value [2] was 0.17 /100WBC and the “PLATELET COUNT” value [2] was 1255.5 x10E3/uL. The “ALANINE AMINOTRANSFERASE” value [2] was 46.5 u/L, the ALBUMIN [2] was 4.38 G/DL and the “ALKALINE PHOSPHATASE” value [2] was 336 u/L. The “ASPARTATE AMINOTRANSFERASE” value [2] was 76.5 u/L, the “BLOOD UREA NITROGEN” value [2] was 20 mg/dL and the “CARBON DIOXIDE” value [2] was 27.5 mmol/L. The CHLORIDE [2] was 101 MEQ/L, the CHOLESTEROL [2] was 71.33 mg/dL and the “CREATINE PHOSPHOKINASE” value [2] was 231.83 u/L. The CREATININE [2] was 0.37 mg/dL, the GLUCOSE [2] was 168.83 mg/dL and the “LACTATE DEHYDROGENASE” value [2] was 174 u/L. The LIPASE [2] was 8.67 u/L, the PHOSPHORUS [2] was 11.48 mg/dL and the POTASSIUM [2] was 6.82 MEQ/L. The SODIUM [2] was 143.8 MEQ/L, the “TOTAL BILIRUBIN” value [2] was 0.2 mg/dL and the “TOTAL PROTEIN” value [2] was 5.98 G/DL. The “URIC ACID” value [2] was 1.83 mg/dL, the “ABSOLUTE BASOPHIL” value [3] was 0 CELLS/uL and the “ABSOLUTE EOSINOPHIL” value [3] was 297 CELLS/uL. The “ABSOLUTE LYMPHOCYTE” value [3] was 13431.33 CELLS/uL, the “ABSOLUTE MONOCYTE” value [3] was 0 CELLS/uL and the “ABSOLUTE SEGMENTED NEUTROPHIL” value [3] was 1238.33 CELLS/uL. The BASOPHIL [3] was 0%, the EOSINOPHIL [3] was 2% and the “ERYTHROCYTE COUNT” value [3] was 5.69 x10E6/uL. For the same compound, the HEMATOCRIT [3] was 35.67%, the HEMOGLOBIN [3] was 13.3 G/DL and the “LEUKOCYTE COUNT” value [3] was 14.97 x10E3/uL. For the same compound, the LYMPHOCYTE [3] was 89.67%, the “MEAN CORPUSCULAR HEMOGLOBIN” value [3] was 23.37 pg and the “MEAN CORPUSCULAR HEMOGLOBIN CONCENTRATION” value [3] was 37.3 G/DL. For the same compound, the “MEAN CORPUSCULAR VOLUME” value [3] was 62.7 fL, the MONOCYTE [3] was 0% and the NEUTROPHIL [3] was 8.33%. The “NUCLEATED RED BLOOD CELLS” value [3] was 0 /100WBC, the “PLATELET COUNT” value [3] was 1188.33 x10E3/uL and the “ALANINE AMINOTRANSFERASE” value [3] was 35.33 u/L. The ALBUMIN [3] was 4.5 G/DL, the “ALKALINE PHOSPHATASE” value [3] was 363.33 u/L and the “ASPARTATE AMINOTRANSFERASE” value [3] was 79 u/L. The “BLOOD UREA NITROGEN” value [3] was 17.33 mg/dL, the “CARBON DIOXIDE” value [3] was 26.33 mmol/L and the CHLORIDE [3] was 100 MEQ/L. For the same compound, the CHOLESTEROL [3] was 67.33 mg/dL, the “CREATINE PHOSPHOKINASE” value [3] was 213 u/L and the CREATININE [3] was 0.25 mg/dL. For the same compound, the GLUCOSE [3] was 158 mg/dL, the “LACTATE DEHYDROGENASE” value [3] was 122 u/L and the LIPASE [3] was 8.33 u/L. It also gave a PHOSPHORUS [3] of 12.37 mg/dL, a POTASSIUM [3] of 6.67 MEQ/L and an SODIUM [3] of 142.2 MEQ/L. For the same compound, the “TOTAL BILIRUBIN” value [3] was 0.13 mg/dL, the “TOTAL PROTEIN” value [3] was 6.23 G/DL and the “URIC ACID” value [3] was 1.73 mg/dL.
